Experiment [1] deals with T1, D(3) dopamine receptor (Homo sapiens, UniProt P35462). The experiment in a line: Agonist activity at human D3R expressed in CHOK1 cells assessed as induction of beta-arrestin recruitment measured after 90 mins by beta-galactosidase based PathHunter assay. The format is cell-based.
The target in experiment [2] is T1, D(3) dopamine receptor. The experiment in a line: biochemical.
For experiment [3], the target named is T2, D(2) dopamine receptor (Homo sapiens, UniProt P14416).
Experiment [4] has as its target T2, D(2) dopamine receptor. The experiment in a line: Antagonist activity at human D2R expressed in CHOK1 cells assessed as inhibition of dopamine-induced beta-arrestin recruitment measured after 120 mins by beta-galactosidase based PathHunter assay relative to sulpiride. It is filed as cell-based. To be noted: 2 h, read-out: Imax. In general terms: Arrestin recruitment assays detect the binding of arrestin to an activated receptor.

Experiment [5] has as its target T2, D(2) dopamine receptor. In words: Agonist activity at human D2R expressed in CHOK1 cells assessed as induction of beta-arrestin recruitment measured after 90 mins by beta-galactosidase based PathHunter assay. It is filed as cell-based.
The target of experiment [6] is 5-hydroxytryptamine receptor 2B (Homo sapiens, UniProt P41595). The experiment in a line: Antagonist activity at recombinant human 5-HT2B receptor expressed in CHOK1 cells assessed as inhibition of serotonin-induced increase in inositol1-phosphate accumulation measured after 30 mins by HTRF assay. The format is functional, cell-based. For orientation: In TR-FRET formats the signal depends on donor and acceptor labels being close together.

Experiment [7] deals with T2, D(2) dopamine receptor. The experiment in a line: Antagonist activity at human D2R expressed in CHOK1 cells assessed as inhibition of dopamine-induced beta-arrestin recruitment measured after 120 mins by beta-galactosidase based PathHunter assay. It is filed as cell-based.

A value given as a limit tells only on which side of the number the result lay.

T1 sequence (P35462 whole entry): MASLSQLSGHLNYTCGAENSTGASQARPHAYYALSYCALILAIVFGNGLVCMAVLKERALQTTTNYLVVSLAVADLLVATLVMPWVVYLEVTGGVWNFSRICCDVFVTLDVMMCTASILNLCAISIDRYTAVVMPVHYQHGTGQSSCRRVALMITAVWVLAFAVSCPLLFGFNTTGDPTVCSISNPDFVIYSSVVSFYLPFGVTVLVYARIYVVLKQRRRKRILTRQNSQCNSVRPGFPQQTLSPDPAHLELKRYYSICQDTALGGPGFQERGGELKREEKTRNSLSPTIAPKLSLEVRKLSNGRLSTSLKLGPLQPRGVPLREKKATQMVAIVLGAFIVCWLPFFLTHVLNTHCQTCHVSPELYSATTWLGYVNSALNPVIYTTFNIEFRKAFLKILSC
T2 sequence (P14416 whole entry): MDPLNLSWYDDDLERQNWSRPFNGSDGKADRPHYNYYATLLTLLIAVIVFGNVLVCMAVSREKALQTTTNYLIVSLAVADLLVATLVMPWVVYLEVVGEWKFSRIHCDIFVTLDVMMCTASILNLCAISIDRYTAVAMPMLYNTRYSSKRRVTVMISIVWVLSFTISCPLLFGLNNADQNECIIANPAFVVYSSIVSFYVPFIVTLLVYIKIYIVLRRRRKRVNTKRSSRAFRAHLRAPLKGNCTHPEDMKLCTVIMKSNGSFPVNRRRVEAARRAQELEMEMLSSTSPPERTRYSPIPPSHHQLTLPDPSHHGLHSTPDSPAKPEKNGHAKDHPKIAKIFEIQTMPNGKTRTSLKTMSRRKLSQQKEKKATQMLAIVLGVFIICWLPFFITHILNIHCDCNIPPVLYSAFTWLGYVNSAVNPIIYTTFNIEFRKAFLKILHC
Chain of 5-hydroxytryptamine receptor 2B (P41595 whole entry): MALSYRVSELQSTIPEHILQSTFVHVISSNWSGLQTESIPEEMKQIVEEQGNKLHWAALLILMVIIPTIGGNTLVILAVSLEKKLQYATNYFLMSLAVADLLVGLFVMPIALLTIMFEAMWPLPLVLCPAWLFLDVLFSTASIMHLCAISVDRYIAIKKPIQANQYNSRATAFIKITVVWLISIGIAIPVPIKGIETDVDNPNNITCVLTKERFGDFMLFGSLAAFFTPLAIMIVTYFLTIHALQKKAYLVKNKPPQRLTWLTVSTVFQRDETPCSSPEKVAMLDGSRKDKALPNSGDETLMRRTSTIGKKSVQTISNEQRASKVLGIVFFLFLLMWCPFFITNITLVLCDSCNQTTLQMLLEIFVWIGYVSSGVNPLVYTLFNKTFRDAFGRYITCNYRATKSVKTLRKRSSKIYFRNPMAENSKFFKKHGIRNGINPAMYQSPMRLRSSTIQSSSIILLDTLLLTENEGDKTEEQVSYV

A word on the EC50: it is the concentration at which the effect is half-maximal. A word on the IC50: it is the concentration that gives 50% inhibition. With `COc1ccc(OCCN2CCN(C(=O)c3ccc(OC)cc3)CC2)cc1`, the values for the EC50 in experiment [1] (read-out: EC50) and in experiment [5] were 710 nM and “Not Active”, respectively. Besides, the IC50 was 10000 to 100000 nM in experiment [2] and over 100000 nM in experiment [3]. In addition, the Emax in experiment [4] came out at 88%.

For `Cn1ccc2cc3c(cc21)CCN3C(=O)Nc1cccnc1`, in experiment [6], the EC50 is 13 nM.

Regarding `COc1ccc(C(=O)N2CCN(CCOc3ccc(Cl)cc3)CC2)cc1`, in experiment [7] (read-out: IC50), the IC50 was over 10000 nM. Besides, the Emax in experiment [4] was found to be 101%. The EC50 entry in experiment [5] is recorded as “Not Active”.

As to `COc1ccc(C(=O)N2CCN(CCOc3ccc4c(c3)OCO4)CC2)cc1`, the EC50 is 310 nM in experiment [1] (read-out: EC50) and “Not Active” in experiment [5]. Further, the IC50 in experiment [7] (read-out: IC50) was over 10000 nM. In addition, the Emax in experiment [4] is 87%.

With `CCc1ccc(C(=O)N2CCN(CCOc3ccc(OC)cc3)CC2)cc1`, the EC50 in experiment [1] (read-out: EC50) is 530 nM; in experiment [5], “Not Active”. The IC50 in experiment [7] (read-out: IC50) was 6000 nM. Moreover, the Emax in experiment [4] is 106%.

Regarding `O=C(c1cc2ccccc2[nH]1)N1CCN(CCOc2ccc(F)cc2)CC1`, the EC50 in experiment [1] (read-out: EC50) is 126 nM; in experiment [5] (read-out: EC50), over 50000 nM. Moreover, the IC50 in experiment [7] (read-out: IC50) stood at 9700 nM. Further, in experiment [4], the Emax was determined as 72%.

In the case of `COc1ccc(OCCN2CCN(C(=O)c3ccc(Cl)cc3)CC2)cc1`, the EC50 result in experiment [1] and in experiment [5] was “Not Active” in each case. Moreover, in experiment [7] (read-out: IC50), the IC50 is 9000 nM. The Emax in experiment [4] turned out to be 107%.

With `Cc1ccc(OCCN2CCN(C(=O)c3cc4ccccc4[nH]3)CC2)cc1C`, the EC50 in experiment [1] (read-out: EC50) was 610 nM; in experiment [5], “Not Active”. Also, the IC50 in experiment [7] (read-out: IC50) was determined as 13000 nM. In addition, in experiment [4], the Emax amounted to 88%.

As for `COc1ccc(OCCN2CCN(C(=O)c3cc4ccccc4n3C)CC2)cc1`, the EC50 was 310 nM in experiment [1] (read-out: EC50) and “Not Active” in experiment [5]. For the same molecule, the IC50 in experiment [7] (read-out: IC50) came out at 9600 nM. In experiment [4], the Emax was found to be 105%.

For the molecule `O=C(c1cc2ccccc2[nH]1)N1CCN(CCOc2cncc(Cl)c2)CC1`, the EC50 in experiment [1] (read-out: EC50) turned out to be 5 nM; in experiment [5] (read-out: EC50), 790 nM. In addition, the IC50 result in experiment [7] is listed as “Not Active”.

In the case of `O=C(c1cc2ccccc2[nH]1)N1CCN(CCOc2ccccc2)CC1`, the EC50 in experiment [1] (read-out: EC50) is 9.2 nM; in experiment [5] (read-out: EC50) it was 1800 nM. For the same molecule, in experiment [7] (read-out: IC50), the IC50 came out at 535 nM. For the same molecule, in experiment [4], the Emax stood at 37%.

Regarding `COc1ccc(OCCN2CCN(C(=O)c3cc4ccccc4o3)CC2)cc1`, the IC50 in experiment [7] (read-out: IC50) was 7700 nM. Besides, the Emax in experiment [4] amounted to 111%. Further, the EC50 entry in experiment [5] is listed as “Not Active”.

Consider `COc1ccc(OC(C)CN2CCN(C(=O)c3ccc(OC)cc3)CC2)cc1` (stereo not given), for which the IC50 in experiment [7] (read-out: IC50) was 18000 nM. Further, the Emax in experiment [4] was found to be 89%. Further, the EC50 result in experiment [5] is reported as “Not Active”.

Turning to `COc1cccc(OCCN2CCN(C(=O)c3cc4cnccc4[nH]3)CC2)c1`, the EC50 in experiment [1] (read-out: EC50) is 280 nM; in experiment [5] (read-out: EC50), 830 nM. In addition, the IC50 in experiment [7] (read-out: IC50) worked out at 7400 nM. Moreover, the Emax in experiment [4] was found to be 30%.

Source of the values: ChEMBL document CHEMBL4402608 (J Med Chem, 2020).
